Measured values reported in ChEMBL document CHEMBL5518224, “Rational Design of PARP1/c-Met Dual Inhibitors for Overcoming PARP1 Inhibitor Resistance Induced by c-Met Overexpression” (J Med Chem, 2024).

Columns and labels:
[1] = target: Poly [ADP-ribose] polymerase 1 (Homo sapiens, UniProt P09874); experiment: Inhibition of PARP1 (unknown origin) using histone as substrate incubated for 45 mins by absorbance based analysis
MDA-MB-231 = experiment: Antiproliferative activity against human MDA-MB-231 cells harboring wild type BRCA and c-Met amplification assessed as inhibition of cell growth incubated for 7 days by MTT assay; assay type: functional, cell-based; settings: MDA-MB-231, 168 h
[2] = target: T1, Hepatocyte growth factor receptor (Homo sapiens, UniProt P08581); experiment: Inhibition of c-Met (unknown origin) by HTRF method
[3] = target: T1, Hepatocyte growth factor receptor; experiment: Inhibition of c-Met (unknown origin) at 100 nM by HTRF method relative to control

Sequence of Poly [ADP-ribose] polymerase 1 (P09874 whole entry): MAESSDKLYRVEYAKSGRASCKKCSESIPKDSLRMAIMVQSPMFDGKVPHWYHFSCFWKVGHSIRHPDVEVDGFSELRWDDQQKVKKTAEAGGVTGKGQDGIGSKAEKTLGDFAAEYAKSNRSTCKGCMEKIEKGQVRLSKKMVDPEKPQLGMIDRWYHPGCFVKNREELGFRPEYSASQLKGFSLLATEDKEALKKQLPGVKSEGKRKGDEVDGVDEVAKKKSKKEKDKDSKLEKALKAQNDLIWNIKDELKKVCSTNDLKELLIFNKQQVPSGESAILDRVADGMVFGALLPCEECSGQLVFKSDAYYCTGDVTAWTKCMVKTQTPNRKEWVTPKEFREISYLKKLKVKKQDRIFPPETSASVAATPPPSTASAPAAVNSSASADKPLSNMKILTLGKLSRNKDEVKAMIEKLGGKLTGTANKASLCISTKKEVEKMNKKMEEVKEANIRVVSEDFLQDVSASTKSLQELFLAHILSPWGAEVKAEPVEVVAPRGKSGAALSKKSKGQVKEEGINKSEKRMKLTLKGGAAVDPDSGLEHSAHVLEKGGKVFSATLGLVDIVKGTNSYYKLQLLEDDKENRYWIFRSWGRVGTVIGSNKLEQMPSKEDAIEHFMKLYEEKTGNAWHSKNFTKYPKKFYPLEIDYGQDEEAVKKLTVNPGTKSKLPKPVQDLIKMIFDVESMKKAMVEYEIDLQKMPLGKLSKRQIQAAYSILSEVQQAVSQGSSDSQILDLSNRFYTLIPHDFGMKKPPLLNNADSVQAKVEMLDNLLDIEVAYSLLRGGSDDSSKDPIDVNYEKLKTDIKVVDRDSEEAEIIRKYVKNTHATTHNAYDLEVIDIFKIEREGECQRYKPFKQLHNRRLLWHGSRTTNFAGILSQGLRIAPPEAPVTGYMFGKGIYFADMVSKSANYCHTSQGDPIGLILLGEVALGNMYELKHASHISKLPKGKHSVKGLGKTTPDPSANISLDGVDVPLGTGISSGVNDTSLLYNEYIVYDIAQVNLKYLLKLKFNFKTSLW
T1 sequence (P08581 whole entry): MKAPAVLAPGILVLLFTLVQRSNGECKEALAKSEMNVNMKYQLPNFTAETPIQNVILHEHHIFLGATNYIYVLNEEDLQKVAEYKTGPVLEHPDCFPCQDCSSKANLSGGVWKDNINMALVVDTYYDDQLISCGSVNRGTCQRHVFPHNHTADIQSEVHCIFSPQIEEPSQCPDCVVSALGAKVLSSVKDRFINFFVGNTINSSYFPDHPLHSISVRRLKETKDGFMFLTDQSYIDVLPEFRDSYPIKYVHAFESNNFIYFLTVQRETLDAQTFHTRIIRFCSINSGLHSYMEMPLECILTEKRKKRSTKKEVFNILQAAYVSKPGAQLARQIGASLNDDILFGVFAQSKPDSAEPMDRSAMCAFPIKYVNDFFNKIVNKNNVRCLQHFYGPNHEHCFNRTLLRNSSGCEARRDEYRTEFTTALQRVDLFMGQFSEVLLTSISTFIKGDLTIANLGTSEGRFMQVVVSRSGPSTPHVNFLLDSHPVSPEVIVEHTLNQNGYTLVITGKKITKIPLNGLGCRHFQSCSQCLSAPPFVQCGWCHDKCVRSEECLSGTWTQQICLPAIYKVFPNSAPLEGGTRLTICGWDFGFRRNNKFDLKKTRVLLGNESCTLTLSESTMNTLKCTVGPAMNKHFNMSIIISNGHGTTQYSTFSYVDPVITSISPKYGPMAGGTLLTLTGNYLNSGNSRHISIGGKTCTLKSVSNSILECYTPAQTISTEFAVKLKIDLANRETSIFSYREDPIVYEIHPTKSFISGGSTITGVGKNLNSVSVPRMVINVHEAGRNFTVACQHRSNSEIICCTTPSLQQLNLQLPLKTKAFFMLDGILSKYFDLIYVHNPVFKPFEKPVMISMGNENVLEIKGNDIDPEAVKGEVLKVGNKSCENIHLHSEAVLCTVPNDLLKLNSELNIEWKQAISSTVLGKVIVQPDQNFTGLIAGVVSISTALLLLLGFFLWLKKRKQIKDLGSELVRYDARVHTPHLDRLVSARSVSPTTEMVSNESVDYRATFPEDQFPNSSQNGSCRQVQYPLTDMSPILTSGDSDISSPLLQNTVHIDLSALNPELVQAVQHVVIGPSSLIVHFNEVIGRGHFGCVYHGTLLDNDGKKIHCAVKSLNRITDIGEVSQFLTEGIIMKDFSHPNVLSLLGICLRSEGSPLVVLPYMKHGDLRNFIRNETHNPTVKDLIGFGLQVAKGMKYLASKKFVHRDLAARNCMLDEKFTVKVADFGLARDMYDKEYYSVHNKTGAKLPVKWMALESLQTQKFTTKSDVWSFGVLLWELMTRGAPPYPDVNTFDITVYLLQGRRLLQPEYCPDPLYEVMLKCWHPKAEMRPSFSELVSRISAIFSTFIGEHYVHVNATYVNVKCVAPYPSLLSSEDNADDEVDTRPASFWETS

| SMILES | IC50 [1] [nM] | IC50 (MDA-MB-231) [nM] | IC50 [2] [nM] | inhibition [3] [%] |
| --- | --- | --- | --- | --- |
| O=C(c1cc(Cc2n[nH]c(=O)c3ccccc23)ccc1F)N1CCN(c2ccc3c(OCCn4nc(-c5ccc(C(F)(F)F)cc5)ccc4=O)ccnc3c2)CC1 | 7.3 | – | – | < 50 |
| Cn1cc(-c2ccc(=O)n(CCOc3ccnc4cc(OCCN5CCN(C(=O)c6cc(Cc7n[nH]c(=O)c8ccccc78)ccc6F)CC5)ccc34)n2)cn1 | 3.7 | 1020 | 18.2 | – |
| Cn1cc(-c2ccc(=O)n(CCOc3ccnc4cc(NCCN5CCN(C(=O)c6cc(Cc7n[nH]c(=O)c8ccccc78)ccc6F)CC5)ccc34)n2)cn1 | 32.2 | – | – | < 50 |
| O=C(c1cc(Cc2n[nH]c(=O)c3ccccc23)ccc1F)N1CCN(c2ccc3c(OCCn4nc(-c5ccccc5)ccc4=O)ccnc3c2)CC1 | 1.1 | 1730 | 37.7 | – |

The remaining lines, values ahead:

| IC50 [1] [nM] | IC50 (MDA-MB-231) [nM] | IC50 [2] [nM] | inhibition [3] [%] | SMILES |
| --- | --- | --- | --- | --- |
| 0.12 | 230 | 30 | – | Cn1cc(-c2ccc(=O)n(CCOc3ccnc4cc(N5CCN(C(=O)c6cc(Cc7n[nH]c(=O)c8ccccc78)ccc6F)CC5)ccc34)n2)cn1 |
| 4.7 | – | 126 | – | Cn1cc(-c2ccc(=O)n(CCOc3ccnc4cc(NC5CCN(C(=O)c6cc(Cc7n[nH]c(=O)c8ccccc78)ccc6F)CC5)ccc34)n2)cn1 |
| 42 | – | 64.2 | – | Cn1cc(-c2ccc(=O)n(CCOc3ccnc4cc(N5CCC(NC(=O)c6cc(Cc7n[nH]c(=O)c8ccccc78)ccc6F)CC5)ccc34)n2)cn1 |
| 5.8 | – | 42.6 | – | Cn1cc(-c2ccc(=O)n(CCOc3ccnc4cc(NC5CCN(C(=O)c6cc(Cc7n[nH]c(=O)c8ccccc78)ccc6F)C5)ccc34)n2)cn1 (centres undefined) |
